Data on 33 molecules can be found in patent US4096259A, “Non-amphetaminic psychostimulating compositions of 1,4-disubstituted piperazines” (priority 1975, dated 1978).

Series [1] is described as follows: Acute toxicity (LD50) in mice, per os. As to conditions: mouse, in vivo, po. The text has this:
Acute toxicity was studied by determining the LD50 in mice, the derivatives being administered per os.

In series [2] the test system is exploration response in mice. Briefly: Psychostimulating activity: increase of exploration response in mice (actimetry). To be noted: Mus musculus, po, per os, dose which increases exploration response by 50%. The format is in vivo. The text has this: The psychostimulating activity was studied by determining the dose which increases the exploration response in mice (actimetry) by 50% (ED50),according to the method described by BOISSIER J.R. and SIMON P. (Arc. Int. Pharmacolyn, 1965, 212-221158).

The nature of series [3]: Group toxicity (LD50 grouped mice / LD50 isolated mice). To be noted: mouse, in vivo.
Series [4] relates to dog cardiovascular system. The series can be described thus: Secondary action on the dog cardiovascular system, intravenous. The format is in vivo. To be noted: intravenous administration.
Series [5] relates to ptose with reserpine in mice. Briefly: Ptose antagonism with reserpine in mice. The series is classed as in vivo. As to conditions: Mus musculus, po, per os.
Another series has as its system sleep in mice. The series can be described thus: Anti-sleep activity in mice. The format is in vivo.
For series [6], the system named is mortality with pentetrazole in mice. Briefly: Potentiation of mortality with pentetrazole in mice. The format is in vivo. To be noted: per os.
For a further series, the system named is rat isolated duodenum. The series can be described thus: In vitro papaverine spasmolytic activity: duodenum contractions in rats induced by barium chloride. To be noted: for Spasmolytic activity (papaverine hydrochloride = 1): in vitro, rat duodenum, barium chloride, relative to papaverine hydrochloride = 1. On the procedure: The papaverine spasmolytic activity was measured "in vitro" by the concentration ratio: active principle/papaverine hydrochloride concentration, which reduces duodenum contractions in rats, induced by barium chloride, by 50% according to the method of POMARET J. C., SERGANT - ODY M., POURRIAS B. and HUGUET G. (Therapie, 1969, 24, 109-143).
(§1) Table V below gives, by way of example, the complementary pharmacological activities such as antiserotonin, adrenolytic and atropinic activities for derivatives N° 21, 23 and 33, the spasmolytic activity of which is the greatest for the rat isolated duodenum.

Another series concerns rabbit isolated ear. Briefly: In vitro spasmolytic action on the rabbit isolated ear. To be noted: papaverine hydrochloride = 1.
Text: as §1

For another series, the system named is paw vessels of the dog. Briefly: In vivo spasmolytic action on paw vessels of the dog. To be noted: papaverine hydrochloride = 1.
Text: as §1

Another series deals with Guinea-pig ileum. Briefly: In vitro atropinic action on the Guinea-pig ileum. To be noted: Atropine sulfate = 1.
Text: as §1

In another series the test system is rabbit aorta. Briefly: In vitro spasmolytic action on the rabbit aorta. As to conditions: papaverine hydrochloride = 1.
Text: as §1

The subject of series [7] is Guinea-pig seminal vesicle. Briefly: In vitro adrenolytic action on the Guinea-pig seminal vesicle. To be noted: Yohimbine hydrochloride = 1.
Text: as §1

SMILES strings stand for the structures. Where only a bound is given, the exact number is not on record here.

By LD50 is commonly meant the dose expected to kill half of the subjects tested. In general, ED50 refers to the dose that gives a 50% effect, or the effect in half of the subjects. Read a low ED50 as greater potency. For the molecule `O=C(O)CN1CCN(CCOC(c2ccccc2)c2ccccc2)CC1` [Derivative 1], the LD50 in [1] was > 1600 mg/kg. Also, in [2], the ED50 was 400 mg/kg.
In the case of `O=C(O)CCN1CCN(CCOC(c2ccccc2)c2ccccc2)CC1` [Derivative 2], the LD50 in [1] is 2250 mg/kg. For the same molecule, in series [3], the selectivity ratio stood at 0.6. The “secondary action on the dog cardiovascular system” value (from here on “secondary action”) in series [4] is “devoid of any secondary action”. For the same molecule, the values for the median effective dose (ED50) in series [5] and in [2] were 55 mg/kg and 80 mg/kg, respectively. Besides, the “Anti-sleep activity in mice” value in the series with sleep in mice was “Nil”. Moreover, the “Potentiation of mortality with pentetrazole in mice ED50” value (shortened to “Potentiation of mortality”) in series [6] is recorded as 320 mg/kg.
`O=C(O)CCCN1CCN(CCOC(c2ccccc2)c2ccccc2)CC1` [Derivative 3] displayed an LD50 in series [1] of 1500 mg/kg. Besides, in [3], the selectivity ratio worked out at 1.25. In addition, the “secondary action” value in [4] is reported as “devoid of any secondary action”. Also, the ED50 in series [5] stood at 160 mg/kg; in series [2], 80 mg/kg. In the series on sleep in mice, the “Anti-sleep activity in mice” value is recorded as “Nil”. For the same molecule, the “Potentiation of mortality” value in series [6] was > 300 mg/kg.
`O=C(O)CN1CCN(CCOC(c2ccccc2)c2ccc(F)cc2)CC1` (stereo not shown) [Derivative 4]: in series [1], the LD50 turned out to be 1600 mg/kg. The ED50 in series [2] is 60 mg/kg.
For `O=C(O)CCN1CCN(CCOC(c2ccccc2)c2cccc(C(F)(F)F)c2)CC1` (stereo not shown) [Derivative 6], the LD50 in series [1] amounted to 1200 mg/kg. In series [2], this molecule came in with an ED50 of 200 mg/kg.
For the molecule `COc1ccccc1C(OCCN1CCN(CCC(=O)O)CC1)c1ccccc1` (stereo not shown) [Derivative 7], the LD50 in series [1] stood at 1400 mg/kg. In series [2], the ED50 is > 400 mg/kg.
`O=C(O)CCN1CCN(CCOC(c2ccccc2)c2ccc(Cl)cc2)CC1` (stereo not shown) [Derivative 8]: in series [1], the LD50 came to 1000 mg/kg. In [2], it took a dose of 30 mg/kg to reach the 50% effect level (ED50).
The matching figures for `Cc1ccc(C(OCCN2CCN(CCC(=O)O)CC2)c2ccccc2)cc1` (stereo not shown) [Derivative 9]: 1400 mg/kg and 100 mg/kg.
Regarding `COc1cc(C(OCCN2CCN(CCC(=O)O)CC2)c2ccccc2)cc(OC)c1OC` (stereo not shown) [Derivative 10], the LD50 in series [1] was > 1600 mg/kg. For the same molecule, the ED50 in series [2] is > 400 mg/kg.
Turning to `O=C(O)CCN1CCN(CCOC(c2ccc(F)cc2)c2ccc(F)cc2)CC1` [Derivative 11], the LD50 in series [1] turned out to be 700 mg/kg. For the same molecule, the “Spasmolytic activity (papaverine hydrochloride = 1)” value in the series on rat isolated duodenum is recorded as 0,1. In series [2], the 50% effect level (ED50) was put at a dose of 30 mg/kg.
Taken in the same sequence, the figures for `O=C(O)CCCN1CCN(CCOC(c2ccccc2)c2ccc(F)cc2)CC1` (stereo not shown) [Derivative 12] were 1200 mg/kg, 0,1 and 35 mg/kg.
Consider `O=C(O)CCCCN1CCN(CCOC(c2ccccc2)c2ccc(F)cc2)CC1` (stereo not shown) [Derivative 13], for which the LD50 in [1] was 1400 mg/kg. In addition, the median effective dose (ED50) in series [2] came out at 35 mg/kg.
On to `COC(=O)CCCCN1CCN(CCOC(c2ccc(F)cc2)c2ccc(F)cc2)CC1` [Derivative 14], for which the LD50 in series [1] is 500 mg/kg. In addition, the “Spasmolytic activity (papaverine hydrochloride = 1)” value in the series on rat isolated duodenum was 3,5. Also, in [2], the ED50 is 45 mg/kg.
Consider `CCOC(=O)CN1CCN(CCOC(c2ccc(F)cc2)c2ccc(F)cc2)CC1` [Derivative 15], for which the LD50 in series [1] is 1200 mg/kg. Moreover, the “Spasmolytic activity (papaverine hydrochloride = 1)” value in the series with rat isolated duodenum is listed as 6,5. For the same molecule, it took a dose of 40 mg/kg to reach the 50% effect level in series [2] (ED50).
In series [1], `CCOC(=O)CCN1CCN(CCOC(c2ccccc2)c2ccccc2)CC1` [Derivative 16] returned an LD50 of 2000 mg/kg. Further, the “Spasmolytic activity (papaverine hydrochloride = 1)” value in the series on rat isolated duodenum is 1,5. Moreover, in series [3], the selectivity ratio was 0.8. Further, the “secondary action” value in [4] is listed as “devoid of any secondary action”. For the same molecule, the ED50 was found to be 190 mg/kg in series [5] and 100 mg/kg in [2]. Further, in the series on sleep in mice, the “Anti-sleep activity in mice” value is given as “Nil”. In addition, the “Potentiation of mortality” value in [6] is > 400 mg/kg.
For `CCOC(=O)CCN1CCN(CCOC(c2ccccc2)c2ccccc2Cl)CC1` (stereo not shown) [Derivative 17], the LD50 in series [1] was 1600 mg/kg. Also, the “Spasmolytic activity (papaverine hydrochloride = 1)” value with rat isolated duodenum is given as 1,5. In addition, the ED50 in series [2] is > 200 mg/kg.
Taken in the same sequence, the figures for `CCOC(=O)CCN1CCN(CCOC(c2ccccc2)c2ccc(Cl)cc2)CC1` (stereo not shown) [Derivative 18] were 1400 mg/kg, 1 and 30 mg/kg.
Taken in the same sequence, the figures for `CCOC(=O)CCN1CCN(CCOC(c2ccccc2)c2ccc(C)cc2)CC1` (stereo not shown) [Derivative 19] were > 1600 mg/kg, 1,5 and > 400 mg/kg.
With `CCOC(=O)CCN1CCN(CCOC(c2ccccc2)c2ccc([N+](=O)[O-])cc2)CC1` (stereo not shown) [Derivative 20], in series [1], the LD50 was > 1600 mg/kg. Also, in the series on rat isolated duodenum, the “Spasmolytic activity (papaverine hydrochloride = 1)” value is 5,5. In series [2], the ED50 was > 400 mg/kg.
The matching figures for `CCOC(=O)CCN1CCN(CCOC(c2ccc(C)cc2)c2ccc(F)cc2)CC1` (stereo not shown) [Derivative 22]: > 1600 mg/kg, 5,5 and 35 mg/kg.
For the molecule `CCOC(=O)CCCN1CCN(CCOC(c2ccc(F)cc2)c2ccc(F)cc2)CC1` [Derivative 23], the LD50 in series [1] worked out at 800 mg/kg. Besides, in the series on rabbit isolated ear, the “In vitro spasmolytic action on the rabbit isolated ear” value is reported as 0,3. Also, the “Spasmolytic activity (papaverine hydrochloride = 1)” value in the series on rat isolated duodenum was 13,5. The “spasmolytic activity for the rat isolated duodenum (in words)” value in the series on rat isolated duodenum (rat isolated duodenum) is “greatest”. For the same molecule, in the series on paw vessels of the dog, the “In vivo spasmolytic action on paw vessels of the dog” value worked out at 2. In addition, the “In vitro atropinic action on the Guinea-pig ileum” value in the series on Guinea-pig ileum is listed as > 0,01. This molecule gave an ED50 in series [2] of 50 mg/kg. Also, in the series on rabbit aorta, the “In vitro spasmolytic action on the rabbit aorta” value is 3. Besides, the “In vitro adrenolytic action on the Guinea-pig seminal vesicle” value in [7] stood at 3.
For the molecule `CCOC(=O)CCCN1CCN(CCOC(c2ccccc2)c2ccc(F)cc2)CC1` (stereo not shown) [Derivative 24], the LD50 in series [1] turned out to be 700 mg/kg. Further, in the series on rat isolated duodenum, the “Spasmolytic activity (papaverine hydrochloride = 1)” value is 2,5. Moreover, the ED50 in series [2] came to 50 mg/kg.
Taken in the same sequence, the figures for `CCCCOC(=O)CCN1CCN(CCOC(c2ccc(F)cc2)c2ccc(F)cc2)CC1` [Derivative 25] were 500 mg/kg, 0,5 and 40 mg/kg.
Consider `CCCCCCOC(=O)CCN1CCN(CCOC(c2ccc(F)cc2)c2ccc(F)cc2)CC1` [Derivative 26], for which, in [1], the LD50 came to 800 mg/kg. For the same molecule, in the series on rat isolated duodenum, the “Spasmolytic activity (papaverine hydrochloride = 1)” value turned out to be 1. In addition, it took a dose of 200 mg/kg to reach the 50% effect level in series [2] (ED50).
The matching figures for `CCOC(=O)CCN1CCN(CCCOC(c2ccccc2)c2ccccc2)CC1` [Derivative 27]: 800 mg/kg, 3,5 and 50 mg/kg.
Taken in the same sequence, the figures for `CCOC(=O)CCN1CCN(CCCOC(c2ccccc2)c2ccc(F)cc2)CC1` (stereo not shown) [Derivative 28] were 800 mg/kg, 6,5 and < 100 mg/kg.
Taken in the same sequence, the figures for `N#CCCN1CCN(CCOC(c2ccccc2)c2ccccc2)CC1` [Derivative 29] were 300 mg/kg, 1 and 40 mg/kg.
As for `NC(=O)CCN1CCN(CCOC(c2ccccc2)c2ccccc2)CC1` [Derivative 30], the LD50 in series [1] came out at 1000 mg/kg. In addition, the “Spasmolytic activity (papaverine hydrochloride = 1)” value with rat isolated duodenum was 0,1. The 50% effect level in [2] (ED50) was put at a dose of 80 mg/kg.
Molecule `O=C(CN1CCN(CCOC(c2ccccc2)c2ccccc2)CC1)N1CCOCC1` [Derivative 31] displayed an LD50 in series [1] of 800 mg/kg. Moreover, the “Spasmolytic activity (papaverine hydrochloride = 1)” value with rat isolated duodenum is reported as 0,5. The molecule further displayed an ED50 in [2] of 100 mg/kg.
The matching figures for `COc1ccccc1N1CCN(C(=O)CN2CCN(CCOC(c3ccccc3)c3ccccc3)CC2)CC1` [Derivative 32]: 1200 mg/kg, 2 and 100 mg/kg.
As for `O=C(CN1CCN(CCOC(c2ccc(F)cc2)c2ccc(F)cc2)CC1)N1CCN(Cc2ccc3c(c2)OCO3)CC1` [Derivative 34], in series [1], the LD50 is > 1600 mg/kg. Moreover, in the series with rat isolated duodenum, the “Spasmolytic activity (papaverine hydrochloride = 1)” value is reported as 1,5. The same molecule registered an ED50 in series [2] of 160 mg/kg.
`CCCC(OCCN1CCN(CCC(=O)O)CC1)c1ccccc1` (stereo not shown) [Derivative 35]: the LD50 in series [1] was > 1600 mg/kg. The molecule further came in with an ED50 in series [2] of 60 mg/kg.
For the molecule `CCCC(OCCN1CCN(CCC(=O)OCC)CC1)c1ccc(F)cc1` (stereo not shown) [Derivative 36], in series [1], the LD50 is 1600 mg/kg. Besides, the “Spasmolytic activity (papaverine hydrochloride = 1)” value in the series on rat isolated duodenum is reported as 5. Further, the ED50 in series [2] was > 100 mg/kg.
